Here are results for one compound from patent US20220387429A1, “USE OF IMIDAZOPYRIMIDINE OR IMIDAZOTRIAZINE COMPOUND FOR PREVENTION, ALLEVIATION, OR TREATMENT OF DEVELOPMENTAL DISABILITY” (SK BIOPHARMACEUTICALS CO., LTD., priority 2019, published 2022).

Assay [1] concerns Fmr1 gene knockout mouse model. Briefly: Open field test. The format is in vivo. The note with it: Fmr1 gene knockout mice; 2 mg/kg intraperitoneally twice a day for 6 weeks; versus wild-type mice, P value of 0.0001 or less. An excerpt: (§1) An Fmr1 gene knockout mouse model was used as an animal model of fragile X syndrome. This model lacks FMRP protein due to disruption of the Fmr1 gene. Typical phenotypes of this mouse model include audiogenic seizure, hyperlocomotor activity, cognitive deficit, concentration deficit disorder, and the like.
Male Fmr1 C57BL/6J knock-out mice derived from the early group imported from Jackson Laboratories were used in the experiments. The experimental animals were raised in a light-controlled environment (illuminated for 12 hours/nonilluminated for 12 hours) and maintained at a temperature of 21° C.±2° C. and a relative humidity of about 55%±5%. Food and water were ad libitum fed. […]
After the vehicle or test compound was administered intraperitoneally at a dose of 2 mg/kg twice a day for 6 weeks, an open field test was performed to observe the efficacy behavior of mice who fearlessly stepped out to the center of the open field. […] The number of times the mouse crossed the center of the open field was measured by the breakage of the horizontal beam due to the mouse's movement. […]
(§2) After data analysis by ANOVA, the effect was defined as significant when p<0.05. All results were expressed as mean±SEM.

The next assay relates to Wild-type mice. Briefly: Audiogenic seizure test in wild-type mice. The format is in vivo, mouse. The following applies: 2 mg/kg intraperitoneally twice a day for 6 weeks. As to the method: [The source words this procedure for another variant and reports this variant under the same test.] (§3) Male Fmr1 C57BL/6J knock-out mice derived from the early group imported from Jackson Laboratories were used in the experiments. The experimental animals were raised in a light-controlled environment (illuminated for 12 hours/nonilluminated for 12 hours) and maintained at a temperature of 21° C.±2° C. and a relative humidity of about 55%±5%. Food and water were ad libitum fed. An anticonvulsant efficacy experiment on audiogenic seizure, a contextual fear conditioning experiment, an open field test, and a marble burying test in the Fmr1 gene knockout mouse model was performed by Fragile X Syndrome Drug Validation Initiative (FRAXA-DVI). The mice were randomly divided into groups and the test was performed under illumination.
(§4) The test compound was dissolved in 10% DMSO (dimethylsulfoxide)+30% PEG 300 in DW (distilled water), and administered intraperitoneally at a dose of 2 mg/kg twice a day for 6 weeks. To a control group, vehicle (10% DMSO (dimethylsulfoxide)+30% PEG 300 in DW (distilled water)) was administered.
(§5) Ten mice per group were used.
(§6) After the vehicle or test compound was administered intraperitoneally at a dose of 2 mg/kg twice a day for 6 weeks, the mice were placed in a chamber and exposed to an alarm. The response of the mice during the test was evaluated numerically by the following criteria according to the intensity of seizure, and the survival rate was also observed.
(§7) 1: Wild running and jumping

Assay [2] relates to Fmr1 gene knockout mouse model. As to the kind of experiment: Marble burying test. The following applies: Fmr1 gene knockout mice; 2 mg/kg intraperitoneally twice a day for 6 weeks; versus vehicle-administered knockout group. Format: in vivo.
Source text: as §1
as §3, with “The mice were randomly divided into groups and the test was performed under illumination.” left out
After the vehicle or test compound was administered intraperitoneally at a dose of 2 mg/kg twice a day for 6 weeks, a hippocampal function-dependent marble burying test was performed. […] The mouse was placed and left for 30 minutes, then the number of marbles buried by the mouse was counted.
as §2

Assay [3] concerns Fmr1 gene knockout mouse model. Briefly: Audiogenic seizure test, anticonvulsant efficacy. The note with it: Fmr1 gene knockout mice, 2 mg/kg intraperitoneally twice a day for 6 weeks. The format is in vivo.
Source text: as §1, §3, §4, §5, §6, §7

In assay [4] the test system is Fmr1 gene knockout mouse model. Briefly: Contextual fear conditioning experiment. Format: in vivo. The note with it: Fmr1 gene knockout mice; 2 mg/kg intraperitoneally twice a day for 6 weeks; versus vehicle-administered knockout group.
Source text: as §1, §3
The test compound was dissolved in 10% DMSO (dimethylsulfoxide)+30% PEG 300 in DW (distilled water), and administered intraperitoneally at a dose of 2 mg/kg twice a day for 6 weeks. […]
as §2

For the compound `Fc1ccc(-c2cnc3nc(COc4ccccn4)cn3c2)c(C(F)(F)F)c1` [test compound, 6-[4-fluoro-2-(trifluoromethyl)phenyl]-2-(2-pyridyloxymethyl)imidazo[1,2-a]pyrimidine], the “Number of times the mouse crossed the center (open field, FIG. 2)” value in assay [1] is on record as “significant increase in movement compared to the wild-type mice”. Besides, the Audiogenic seizure phenotype entry in the assay on Wild-type mice is recorded as “no mice showed audiogenic seizure phenotype”. Besides, the “Seizures of 3 or more points” value was 0/10 with Wild-type mice (mice affected/mice in group) and 5/10 in assay [3] (mice affected/mice in group). Also, the results for the Wild running (in the assay on Wild-type mice (mice affected/mice in group); in assay [3] (mice affected/mice in group)) were 0/10 and 6/10, respectively. For the same compound, the “Vulnerability to audiogenic seizure” value with Wild-type mice (proportion of wild running mice) is listed as 0%; in assay [3] (proportion of wild running mice, vehicle group 90%, 2 mg/kg), 60%. The Survival rate with Wild-type mice (survivors/mice in group) is on record as 10/10; in assay [3] (survivors/mice in group) it was 5/10. Besides, the “Number of marbles buried (FIG. 3)” value in assay [2] is given as “increased compared to that in the vehicle-administered group of Fmr1 gene knockout mice”. Moreover, the “Freezing behavior (contextual fear conditioning, FIG. 1)” value in assay [4] was “significantly increased freezing behavior compared to the vehicle-administered group”.
